The text below walks through data of PubChem BioAssay (NCI).

≈ marks a conversion by molar mass, not a printed value. Where “and” joins values, the source holds several entries; their conditions need not be identical. Equal values may be shown once.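 Protocol summary: plate cells (96-well), add compound at 5 concentrations, incubate 48 h, interpolate endpoints linearly. Here, GI50 denotes the concentration required for 50% inhibition of growth. Definition used: TGI = concentration required for complete inhibition of growth.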 Calls of active or inactive are those of the source. Cut-off read from the data, not from the text of the source: active = GI50 below about 0.43 µM; inactive = the rest.

Among the test systems are DMS 114 small cell lung; DLD-1 colon; XF 498 CNS; DMS 273 small cell lung; SNB-78 CNS; M19-MEL melanoma; MDA-N; HOP-18 NSCLC; RXF-631 renal.
Test in all cases: NCI-60 cell line screen, 48 h

Regarding `O=C(Nc1ccc(Cl)cc1)NS(=O)(=O)c1ccc2c(c1)CCC2`, the TGI in the assay with DMS 114 small cell lung was more than 100 µM; with DLD-1 colon it was > 100 µM and 41.1 µg/mL; in the assay on XF 498 CNS, more than 100 µM; with DMS 273 small cell lung, > 100 µM and 39.6 µg/mL; in the assay on SNB-78 CNS it was > 100 µM and 51 µg/mL; with M19-MEL melanoma, > 100 µM and 58.5 µg/mL. Also, the TGI in the assay with MDA-N and with HOP-18 NSCLC was more than 100 µM in each case. For the same compound, the GI50 in the assay on DLD-1 colon is 19.5 µg/mL (≈ 55.5 µM); in the assay with DMS 273 small cell lung, 17.6 µg/mL (≈ 50.3 µM); in the assay with SNB-78 CNS, 8.37 µg/mL (≈ 23.9 µM); in the assay on M19-MEL melanoma, 29.8 µg/mL (≈ 85.1 µM). Besides, the result in the assay with XF 498 CNS and in the assay on HOP-18 NSCLC was inactive.
As to `O=C(CC(O)(c1ccccc1)c1ccc(Cl)cc1)NC(=O)c1ccccc1O` (stereo not given), the TGI in the assay with DMS 114 small cell lung was 31.5 µM; with DLD-1 colon it was more than 100 µM; with DMS 273 small cell lung, 39 µM; in the assay on SNB-78 CNS, more than 100 µM; in the assay with M19-MEL melanoma, 82.8 µM; in the assay with HOP-18 NSCLC it was 8.97 µM. In the assay with RXF-631 renal, this compound displayed a TGI of 74.8 µM.
On to `CCCOC(=O)C1CCC(=O)N1C(=O)C(Cl)Cl` (stereo not given), for which the TGI in the assay with DMS 114 small cell lung, in the assay with DLD-1 colon, in the assay with XF 498 CNS, in the assay on DMS 273 small cell lung, in the assay on SNB-78 CNS and with M19-MEL melanoma was more than 100 µM throughout. The compound also came in with a TGI in the assay on HOP-18 NSCLC of more than 100 µM.
Take `CN(C)CCCn1cnc2ncccc2c1=O`: the TGI with DMS 114 small cell lung, in the assay with DLD-1 colon, in the assay with XF 498 CNS, in the assay with DMS 273 small cell lung, in the assay on SNB-78 CNS and with M19-MEL melanoma was more than 100 µM in each case.
On to `O=C1CCCC1C(=O)Nc1ccc2ccccc2c1` (stereo not given), for which the TGI with MDA-N was more than 100 µM.
In turn, `CC1(CCCC2(C)CCNC2=O)OCCO1` (stereo not given) displayed a TGI in the assay with MDA-N of more than 10 µM.
On to `CCOC(=O)C(C(=O)c1ccccc1-c1ccccc1C(=O)O)=P(c1ccccc1)(c1ccccc1)c1ccccc1`, for which the TGI was 54.4 µM in the assay with DMS 114 small cell lung; 50.2 µM with XF 498 CNS; more than 100 µM in the assay with DMS 273 small cell lung; 72.8 µM in the assay on M19-MEL melanoma; more than 100 µM in the assay with RXF-631 renal.
As for `O=C(c1ccccc1)c1nnn(Cc2cccc(Cl)c2)c1C(=O)c1ccccc1`, the TGI with DMS 114 small cell lung, in the assay on DLD-1 colon, in the assay with XF 498 CNS, in the assay on DMS 273 small cell lung, in the assay with SNB-78 CNS and with M19-MEL melanoma was more than 100 µM each time. In the assay with HOP-18 NSCLC, this compound had a TGI of more than 100 µM.
For the compound `COc1ccc(NC(=O)CC/C(CC(=O)c2ccco2)=N/Nc2ccc([N+](=O)[O-])cc2[N+](=O)[O-])cc1`, the TGI in the assay with DMS 114 small cell lung was 69.6 µM; in the assay on XF 498 CNS it was 81.4 µM; in the assay on DMS 273 small cell lung, more than 100 µM; with SNB-78 CNS, more than 100 µM; in the assay on M19-MEL melanoma it was more than 100 µM; with HOP-18 NSCLC, more than 100 µM. Also, the TGI in the assay with RXF-631 renal is more than 100 µM.
For the compound `COC1CCC(=C2C(=O)OC(C)(C)OC2=O)N1` (stereo not given), the TGI in the assay with DMS 114 small cell lung, in the assay with DLD-1 colon, in the assay with XF 498 CNS, with DMS 273 small cell lung, in the assay on M19-MEL melanoma and with HOP-18 NSCLC was more than 100 µM each time.
For `COC(=O)C1=Cc2cc3c(cc2[C@H](c2ccc4c(c2)OCO4)C1C(=O)OC)OCO3` (stereo not given in full), the TGI in the assay with DMS 114 small cell lung, in the assay with DLD-1 colon, with XF 498 CNS, in the assay with DMS 273 small cell lung, in the assay on SNB-78 CNS and with M19-MEL melanoma was more than 100 µM each time. In the assay on HOP-18 NSCLC, the TGI was more than 100 µM.
In the case of `CC1CN(CCO)CC(C)O1` (stereo not given), the TGI in the assay on MDA-N was more than 100 µM.
Consider `COC1OC(OC)C2C(c3c(C)cc(C)cc3C)=NOC12` (stereo not given), for which the TGI with DLD-1 colon, in the assay with XF 498 CNS, with DMS 273 small cell lung, in the assay on SNB-78 CNS, in the assay with M19-MEL melanoma and with HOP-18 NSCLC was more than 100 µM throughout.
In turn, `COc1ccc(C2SC(N)=Nc3c2c(C)nn3C(=O)c2ccncc2)cc1` (stereo not given) registered a TGI with MDA-N of more than 100 µM.
Take `O=c1[nH]nc(-c2ccccc2)c(-c2ccccc2)c1-n1nc(-c2ccccc2)c2ccccc2c1=O`: the TGI with DLD-1 colon, in the assay on DMS 273 small cell lung, in the assay with SNB-78 CNS, in the assay on M19-MEL melanoma and in the assay with HOP-18 NSCLC was more than 100 µM throughout.
`CCC12C=CCN3CC[C@]4(C(=C(C(=O)OC)[C@@H]1Nc1ncnc5c1ncn5C1OC(COC(C)=O)C(OC(C)=O)C1OC(C)=O)Nc1ccccc14)C32` (stereo not given in full): the TGI in the assay on DMS 114 small cell lung was 4.27 µM; in the assay with DLD-1 colon it was 6.22 µM; in the assay on XF 498 CNS, 7.44 µM; in the assay with DMS 273 small cell lung, 7.17 µM; with SNB-78 CNS, 8.26 µM; in the assay on M19-MEL melanoma, 5.93 µM. In the assay on HOP-18 NSCLC, this compound yielded a TGI of 19.5 µM.
Consider `CCc1ccc(Cc2ccc(CC)c(NC(=O)C(=O)Cc3nc4ccccc4nc3C)c2CC)c(CC)c1NC(=O)C(=O)Cc1nc2ccccc2nc1C`, for which the TGI with DMS 114 small cell lung, in the assay on DLD-1 colon, with SNB-78 CNS, with M19-MEL melanoma and in the assay with RXF-631 renal was more than 100 µM in each case.
Consider `O=P(O)(O)OC1C(OP(=O)(O)O)C(OP(=O)(O)O)C(OP(=O)(O)O)C(OP(=O)(O)O)C1OP(=O)(O)O` (stereo not given), for which, in the assay with MDA-N, the GI50 is more than 2 mM and the TGI is more than 2000 µM.
As for `Cc1c2c(n3c(nc4ccccc43)c1C#N)SCC2`, in the assay with MDA-N, the TGI was more than 10 µM.
On to `CC(=O)OCC1OC(n2cc(F)c(=O)[nH]c2=O)C(OC(C)=O)C1OC(C)=O` (stereo not given), for which the TGI in the assay on DMS 114 small cell lung was more than 100 µM; with DLD-1 colon, more than 100 µM; in the assay on XF 498 CNS, more than 100 µM; in the assay with SNB-78 CNS, more than 100 µM; with M19-MEL melanoma, more than 100 µM; in the assay with MDA-N, more than 56.2 µM. Further, the TGI in the assay with HOP-18 NSCLC and in the assay on RXF-631 renal was more than 100 µM in each case.
`CCc1nc(N)nc(N)c1-c1ccc(Cl)cc1` had a TGI in the assay on MDA-N of more than 100 µM.
Consider `CC(C)c1ccc2c(c1)CCC1C(C)(C)[C@@H](O)CC[C@]21C` (stereo not given in full), for which the TGI is more than 100 µM in the assay on DMS 114 small cell lung; more than 100 µM in the assay on DLD-1 colon; more than 100 µM with DMS 273 small cell lung; more than 100 µM with SNB-78 CNS; 44.2 µM in the assay on M19-MEL melanoma.
